Experimental data: patent US20170157135A1 (Novogen Limited, priority 2013, published 2017)

Legend:
Type in all cases: cell-based
[1] = test system: SHEP neuroblastoma (SH-EP) cells; test: Cell viability assay (MTT), SHEP; conditions: 48 hr treatment
Method: (§1) Cell viability assays were also conducted to assess the anti-proliferative effects of the anti-tropomyosin compounds. Briefly, cells (1×10^3/well) were plated (96-well) and treated (48 hr) with anti-tropomyosin drug and viability measured using 3-(4,5-dimethylthiazol-2-yl)-2,5-diphenylterazolium bromide MTT. Cell viability was normalized to control (vehicle alone) and dose-response curves, and half maximal effective concentration (EC50) values were determined using Graph Pad Prism 5 (nonlinear regression sigmoidal dose-response variable slope).

[2] = test system: SKMEL28 melanoma (SK-MeI-28) cells; test: Cell viability assay (MTT), SKMEL28; conditions: Homo sapiens, SK-MEL-28, 48 hr treatment
Method: as §1

A549 lung (NSLC) cells = test: Anti-proliferative assay (cell-titre luminescent), A549; conditions: Homo sapiens; A549, 72 hours, luminescence
Outline: (§2)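 Cells seeded at line-specific density, attached 24 h at 37 °C/5% CO2, then exposed to 30, 10, 3, 1, 0.3 and 0.1 μM compound for 72 h. Viability by cell-titre luminescence (30 min), normalized to vehicle control; EC50 from variable-slope sigmoidal nonlinear regression.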

SK-Mel-28 melanoma cells = test: Anti-proliferative assay (cell-titre luminescent), SK-Mel-28; conditions: Homo sapiens; SK-Mel-28, 72 hours, luminescence
Outline: as §2

[3] = test system: MDA-MB-231 breast cancer cells; test: Anti-proliferative assay (cell-titre luminescent), MDA-MB-231; conditions: Homo sapiens; MDA-MB-231, 72 hours, luminescence
Outline: as §2

[4] = test system: PC3 prostate cancer cells; test: Anti-proliferative assay (cell-titre luminescent), PC3; conditions: PC3, 72 hours, luminescence
Outline: as §2

[5] = test system: SK-N-SH neuroblastoma cells; test: Anti-proliferative assay (cell-titre luminescent), SK-N-SH; conditions: Homo sapiens, 72 hours, luminescence
Outline: as §2

[6] = test system: CaCo2 colorectal cancer cells; test: Anti-proliferative assay (cell-titre luminescent), CaCo2; conditions: Homo sapiens, Caco-2; CaCo2, 72 hours, luminescence
Outline: as §2

[7] = test system: DU145 prostate cancer cells; test: Anti-proliferative assay (cell-titre luminescent), DU145; conditions: Homo sapiens, DU-145; DU145, 72 hours, luminescence
Outline: as §2

actin cytoskeleton = test: Microfilament disruption assay (phalloidin actin staining); conditions: 24 hours
Method: In silico modeling has identified binding sites on tropomyosin Tm5NM1, yielding the series of tropomyosin inhibitors the subject of the present invention. Inhibition of Tm5NM1 in tumour cells results in disruption of the actin cytoskeleton and ultimately cell death. The ability of compounds 2001-2012 to disrupt the actin cytoskeleton was assessed in vitro using the microfilament disruption assay. Briefly, cells were seeded (5×10^3/well) into 8-well chamber slides (NUNC) and treated with the concentrations of anti-tropomyosin compounds nominated in Table 1 for 24 hours using DMSO as vehicle control. Actin was visualized with Alexa 555 conjugated phalloidin (Molecular probes). Random fields were imaged using an Olympus IX81 microscope. Cells (n>50) were scored on the basis of positive filament staining from n=3 independent experiments.

Row | SMILES | IC50 [1] [µM] | IC50 [2] [µM] | IC50 (A549 lung (NSLC) cells) [µM] | IC50 (SK-Mel-28 melanoma cells) [µM] | IC50 [3] [µM] | IC50 [4] [µM] | IC50 [5] [µM] | IC50 [6] [µM] | IC50 [7] [µM] | Microfilament disruption 10 μM (actin cytoskeleton)
1 | Cc1c(/C=C/C(=O)N2CCN(CCc3ccc(F)cc3)CC2)c2ccccc2n1CCCN(C)C [Compound 2002, (E)-3-(1-(3-(dimethylamino)propyl)-2-methyl-1H-indol-3-yl)-1-(4-(4-fluorophenethyl)piperazin-1-yl)prop-2-en-1-one] | 9.6 | 2.01 | 11.9 | 5.7 | 11.5 | 22.5 | 12.2 | 23.5 | 11.1 | no cells
2 | Cc1c(/C=C/C(=O)N2CCN(Cc3ccc(F)cc3)CC2)c2ccccc2n1CCCN(C)C [Compound 2003, (E)-3-(1-(3-(dimethylamino)propyl)-2-methyl-1H-indol-3-yl)-1-(4-(4-fluorobenzyl)piperazin-1-yl)prop-2-en-1-one] | 2.3 | 3.1 | – | – | – | – | – | – | – | no cells
3 | Cc1c(/C=C/C(=O)N2CCN(C(=O)c3ccccc3)CC2)c2ccccc2n1CCCN(C)C [Compound 2004, (E)-1-(4-benzoylpiperazin-1-yl)-3-(1-(3-(dimethylamino)propyl)-2-methyl-1H-indol-3-yl)prop-2-en-1-one] | 198 | 32.7 | – | – | – | – | – | – | – | –
4 | C/C(=C\C(=O)N1CCN(CCc2ccccc2)CC1)c1c(C)n(CCCN(C)C)c2ccccc12 [Compound 2001, (E)-3-(1-(3-(dimethylamino)propyl)-2-methyl-1H-indol-3-yl)-1-(4-phenethylpiperazin-1-yl)but-2-en-1-one] | 11.5 | 1.64 | – | – | – | – | – | – | – | –
5 | COc1ccc(CCN2CCN(C(=O)c3c(C)n(CCCN(C)C)c4ccccc34)CC2)cc1 [Compound 2039, (1-(3-(dimethylamino)propyl)-2-methyl-1H-indol-3-yl)(4-(4-methoxyphenethyl)piperazin-1-yl)methanone] | – | – | 44 | 11 | 16.6 | 7.6 | 12.6 | 4.8 | 72.6 | –
6 | COc1ccc(CCN2CCN(C(=O)c3c(C)n(CCCN4CCN(C)CC4)c4ccc(OC)cc34)CC2)cc1 [Compound 2057, (5-methoxy-2-methyl-1-(3-(4-methylpiperazin-1-yl)propyl)-1H-indol-3-yl)(4-(4-methoxyphenethyl)piperazin-1-yl)methanone] | – | – | 21.1 | 4.4 | 7.5 | 9 | 7.2 | 13.3 | 30 | –
7 | CCCCN1CCN(C(=O)/C=C/c2c(C)n(CCCN(C)C)c3ccccc23)CC1 [Compound 2005, (E)-1-(4-butylpiperazin-1-yl)-3-(1-(3-(dimethylamino)propyl)-2-methyl-1H-indol-3-yl)prop-2-en-1-one] | 12.9 | 41 | – | – | – | – | – | – | – | –

Second part, led by results:

Row | IC50 [1] [µM] | IC50 [2] [µM] | IC50 (A549 lung (NSLC) cells) [µM] | IC50 (SK-Mel-28 melanoma cells) [µM] | IC50 [3] [µM] | IC50 [4] [µM] | IC50 [5] [µM] | IC50 [6] [µM] | IC50 [7] [µM] | SMILES | Microfilament disruption 10 μM (actin cytoskeleton)
8 | 21.7 | 3.2 | – | – | – | – | – | – | – | Cc1nc(-c2cn(CCCN(C)C)c3ccccc23)cc(N2CCN(CCc3ccccc3)CC2)n1 [Compound 2012, N,N-dimethyl-3-(3-(2-methyl-6-(4-phenethylpiperazin-1-yl)pyrimidin-4-yl)-1H-indol-1-yl)propan-1-amine] | –
9 | 13.2 | 12.1 | – | – | – | – | – | – | – | Cc1c(/C=C/C(=O)NCCc2ccccc2)c2ccccc2n1CCCN(C)C [Compound 2011, (E)-3-(1-(3-(dimethylamino)propyl)-2-methyl-1H-indol-3-yl)-N-phenethylacrylamide] | –
10 | 2.4 | 1.86 | 54.3 | 6.5 | 30 | 30 | 10.8 | 16.1 | 14.3 | COc1ccc2c(c1)c(/C=C/C(=O)N1CCN(CCc3ccccc3)CC1)c(C)n2CCCN(C)C [Compound 2009, (E)-3-(1-(3-(dimethylamino)propyl)-5-methoxy-2-methyl-1H-indol-3-yl)-1-(4-phenethylpiperazin-1-yl)prop-2-en-1-one] | no cells
11 | 1.92 | 3.7 | – | – | – | – | – | – | – | Cc1c(/C=C/C(=O)N2CCN(CCc3ccccc3)CC2)c2ccccc2n1CCCN1CCN(C)CC1 [Compound 2008, (E)-3-(2-methyl-1-(3-(4-methylpiperazin-1-yl)propyl)-1H-indol-3-yl)-1-(4-phenethylpiperazin-1-yl)prop-2-en-1-one] | no cells
12 | 24 | 33.1 | – | – | – | – | – | – | – | Cc1c(/C=C/C(=O)N2CCN(CCc3ccccc3)CC2)c2ccccc2n1CCCN1CCOCC1 [Compound 2007, (E)-3-(2-methyl-1-(3-morpholinopropyl)-1H-indol-3-yl)-1-(4-phenethylpiperazin-1-yl)prop-2-en-1-one] | –
13 | 12.5 | 157 | – | – | – | – | – | – | – | Cc1c(/C=C/C(=O)N2CCN(CCc3ccccc3)CC2)c2ccccc2n1CCN(C)C [Compound 2006, (E)-3-(1-(2-(dimethylamino)ethyl)-2-methyl-1H-indol-3-yl)-1-(4-phenethylpiperazin-1-yl)prop-2-en-1-one] | –
14 | 3.2 | 2.75 | – | – | – | – | – | – | – | COc1ccc(CN2CCN(C(=O)/C=C/c3c(C)n(CCCN(C)C)c4ccccc34)CC2)cc1 [Compound 2010, (E)-3-(1-(3-(dimethylamino)propyl)-2-methyl-1H-indol-3-yl)-1-(4-(4-methoxybenzyl)piperazin-1-yl)prop-2-en-1-one] | –
15 | – | – | 9 | 4.3 | 4.9 | 6.8 | 4.7 | 5.6 | 7.7 | COc1ccc2c(c1)c(/C=C/C(=O)N1CCN(CCc3cccc(F)c3)CC1)c(C)n2CCCN1CCN(C)CC1 [Compound 2032, (E)-1-(4-(3-fluorophenethyl)piperazin-1-yl)-3-(5-methoxy-2-methyl-1-(3-(4-methylpiperazin-1-yl)propyl)-1H-indol-3-yl)prop-2-en-1-one] | –
16 | – | – | 25.7 | 3.2 | 6.2 | 6.5 | 3.7 | 9 | 7.6 | Cc1c(/C=C/C(=O)N2CCN(CCc3ccc4c(c3)OCO4)CC2)c2ccccc2n1CCCN(C)C [Compound 2014, (E)-1-(4-(2-(benzo[d][1,3]dioxol-5-yl)ethyl)piperazin-1-yl)-3-(1-(3-(dimethylamino)propyl)-2-methyl-1H-indol-3-yl)prop-2-en-1-one] | –
17 | – | – | 12.7 | 17.2 | 11.3 | 7.6 | 12.5 | 21.5 | 22 | COc1cccc(CCN2CCN(C(=O)/C=C/c3c(C)n(CCCN(C)C)c4ccc(OC)cc34)CC2)c1 [Compound 2022, (E)-3-(1-(3-(dimethylamino)propyl)-5-methoxy-2-methyl-1H-indol-3-yl)-1-(4-(3-methoxyphenethyl)piperazin-1-yl)prop-2-en-1-one] | –
